Data as given in publication PMC11904221 (EMBO Molecular Medicine, 2025).
Values after ≈ are worked out from the molar mass of the structure shown. Values joined by “and” are separate entries in the source; they are usually repeats but may differ in a detail not shown here. Equal entries are not always repeated. Where two headings read alike, the source gives them in different places. Where a SMILES comes first, the peptide text is derived from it.

Columns and labels:
retinal vasculature = test: Retina angiogenesis assay; assay type: in vivo, mouse; set-up: unit not given here; details: P5 mice, isolectin B4, individual values; control 74-89
From the text: (§1) Red arrows indicate the direction of vessel formation. […] All data are representative of three independent experiments. […] The two Furin cleavage sites are shown. […] (S–U) Plasmon waveguide resonance (PWR). […] Source data are available online for this figure.
Angiogenesis is a complex intercellular process involving the organization of various cells.
Following the treatment period, the mice were humanely euthanized, and their eyes were harvested. […] The retinas were carefully isolated and fixed in 4% PFA for 2 h at room temperature or overnight at 4 °C. After fixation, the retinas were blocked and permeabilized in a solution containing 1% bovine serum albumin (BSA) and 0.5% Triton X-100 overnight at 4 °C. Subsequently, the retinas were washed three times with a buffer solution composed of 0.5% Triton X-100, 1 mM CaCl2, 1 mM MgCl2, and 1 mM MnCl2 in PBS, pH 6.8. The retinas were then incubated with FITC-labeled Isolectin B4 (1:1000; Vector Laboratories) to label blood vessels. Following staining, the retinas were embedded in Tissue-Tek OCT Compound, and 10-μm cryosections were cut. Confocal immunofluorescence images were acquired with an inverted Nikon C2si Eclipse Ti-S microscope and analyzed using NIS-ElementsAR software (Nikon Instruments Europe B.V.).

CT-26 cells on CAM = test: CAM implanted with CT-26 cells, tumor and vascularized area; assay type: in vivo, chick; details: individual values
From the text: (§2) Tumor growth, apoptosis, proliferation, and/or the angiogenic index of the developed tumors were first evaluated.
(§3) (A) Scheme and workflow of apelin-dm preclinic studies. […] (B–D) Error bars indicate s.e.m. center values indicate mean (Mann–Whitney U test). […] The percentage of relative staining intensity corresponding to CD31, Ki67, and BIM expression in CT-26 and MC-38 tumors of treated mice are shown in (I–N). Scale bar, 100 µm. Data represent mean ± s.e.m. of 3–4 independent experiments. P values were calculated with the Student t test in GraphPad. […] Quantification of tumor area (P) and vascularized area (Q) relative to control untreated CAMs (n = 3 CAM per group) assigned 100%. Data represent mean ± s.e.m. P values were calculated with the Student t test in GraphPad. […] (S, T) The average blood flow expressed in % relative to blood flow measured in […] (S) and MDA-MB231 (T) developed tumors. Data represent mean ± s.e.m. of 3–4 independent experiments. P values were calculated with the Student t test in GraphPad. Source data are available online for this figure.
Fertilized eggs were allowed to mature ex ovo. […] Immunohistology in toto was performed for vessel staining.

CT-26 and MC-38 tumors = test: Subcutaneous tumor growth of cells stably expressing APLN or APLN-DM; assay type: in vivo, mouse
[1] = system: chick chorioallantoic membrane; test: Chick chorioallantoic membrane (CAM) angiogenesis assay; details: 48 h, 100 nM each, individual CAM, n = 8; control 99-131
Protocol: Fertilized eggs were allowed to mature ex ovo. […] Immunohistology in toto was performed for vessel staining. Images of CAM vessels were acquired using a Zeiss Axiophot microscope.

CT-26 and MC-38 cells = test: Soft agar, proliferation and apoptosis of cells expressing APLN or APLN-DM; details: cancer cells expressing the construct
Protocol: For the apoptosis assay, tumor cells were grown to 70% confluency, washed repeatedly to remove serum, and then incubated for the indicated time periods in serum-free media. Cells were washed and stained with FITC-labeled Annexin V using the FITC Annexin V Apoptosis Detection Kit I (BD Pharmingen^TM), according to the manufacturer’s instructions.
P values by two-tailed unpaired t-test.

AKT and ERK = test: Phosphorylation of AKT and ERK in HUVEC, SMC, CT-26, HEK 293; assay type: cell-based; details: HUVECs, SMCs, CT-26 cells, HEK-293 cells
From the text: (§4) Scale bar, 50 µm. (C) Radioligand binding assay. […] Data are representative of three independent experiments and data shown as the mean ± s.e.m. […] The signals were sorted from high (red) to low (blue) intensity/phosphorylation. […] Source data are available online for this figure.

CT-26 tumors = assay type: in vivo; details: Appendix Fig. S13
From the text: as §2, §3
Additional experiments involved injecting 1 × 10^6 control CT-26/MC-38/MDA-MB231 cells into BALB/c, C57BL/6, or nude mice, respectively. […] LASER Doppler imaging assessed total blood flow, with FlowR® Hemodynamics visualization used for analysis. Results were expressed as % relative to pre-treatment tumor blood flow.

in vivo = details: both sexes, BALB/c, mouse, ip
Protocol: Pharmacological profile of APLN-DM peptide
Maximal Tolerated Dose (MTD) study of APLN -DM in mice
Six groups comprising six Balb/C mice per group (3 males and 3 females) were assigned to the study. In each gender, one control group (1 Male (M)/1 female (F)) received the reference solution (vehicle) and 5 […]
mg/kg (4M/4F), 2000 mg/kg (5M/5F) and 1500 mg/kg (6M/6F). APLN-DM peptide was administrated via intra-peritoneal (IP) single injection at day 1 followed by observation during 14 days. During the study, mortality, morbidity, general clinical signs and bod y weight were recorded. In the end of the study pathology and organ necropsy examination were performed. Thereby, APLN-DM peptide and vehicle were administered to mice according to Table-1 and their effects were analyzed according to Table-2.
Each test item dose was administrated to 3 female and 3 male mice. The administration was performed IP at a dose volume of 10 ml/kg. Dosing was performed according to Figure-1 and each increase in dose pending on the outcome of the previous dose (results of clinical signs). The lag time between the increasing doses was approximately 48h.
No. (n=) Mouse# Treatment Dose Level administration administratio […]
Table-1. Study design -1. […], […]
Study Day* Procedure Body Weight Clinical Mortality & Organ
Sign Morbidity observation
2-14 - Twice weekly Once -
15 Termination √ √ Gross pathology
Figure 1 - Decisional tree for successive dosing for MTD determination […]
At study termination, body weight (Figure 2 and Figure 3) and gross pathology abnormalities were analyzed in all animals. Main pathological finding were blood clots in intestine and chest cavity. Treatment-related clinical adverse side effects (purple tail, lethargy, decreased motor activity) were observed also in groups treated either with 200, 500, 1000 and 1500 mg/kg. The tail recovered a normal color after 1 hour in all dose groups. […]
abnormalities were detected in all male and female animals from these groups at the scheduled termination […]

[2] = Pharmacokinetic profile in mice, LC/MS; assay type: in vivo, mouse; details: Balb/C mice plasma, LC/MS, estimated from the 5 and 10 min samples
Protocol: Pharmacokinetic profile of APLN-DM in mice
The aim of the current study was to evaluate pharmacokinetic properties of APLN-DM peptide administrated intravenously (IV) or intraperitoneously (IP) in Balb/C mice. […]
for the IP group). Development of quantification method was performed using liquid chromatography coupled to mass spectrometry (LC/MS).
Results: Samples obtained in vivo were analyzed according to quantification-developed method and the peptide was detectable until 15 minutes after administration. Analysis allowed determining that APLN-DM […]
All animals were divided to three groups of 27 animals, one of 12 animals and one of 3 animals (vehicle) and will receive the corresponding test item according to Table 1. Each animal was weighed and administered at the appropriate volume.
Concentration ROA Blood Individual animal numbers
Group No. Treatment Dose Collect
Table 11 - Group allocation
Development of analytic method
Standard range from 0.5 to 100 µM was prepared and analysed for each fragmented ion as previously […]
Standard curves obtained for each ion are represented in Figure 6.
Figure 8: Standard curves obtained by quantification of each fragmented ion The best linearity was obtained by quantifying the fragmented ion 785 (z=5).
Quantification of APLN-DM in samples
Summary of analytical method development:
Quantification method was performed according to previous work. In summary, samples were analysed with a LC-MS triple quadripole system (ESI QqQ). The chromatographic system was a UPLC activity (Waters) coupled to a mass spectrometer TSQ Quantum Ultra (Thermo) equipped with triple quadripole analyser and electrospray ionisation (ESI) system. The selected column was Kinetex F5 […] 50x2.1 mm (Phenomenex). The analysis was made by quantifying fragmented ion z=5 (m/z=785) in samples compared […]
quantitation was previously determined to be 0.5 µM. Samples were analysed after protein precipitation as […]
In vivo phase samples analysis
As the stability of peptide is low, even in frozen plasma, it was decided to re-run the in vivo phase for the highest dose and to use freshly prepared samples.
26 samples were used for analysis.
Only samples taken 5 and 10 minutes after peptide administration presented detectable concentrations (see
Table 9). While 15 min results were on the level of accuracy (linearity threshold values). At a later time […]
estimated based on the 5 and 10 min measurements.
Sample ID Area Calculated amount

in vitro [3] = test: in vitro
in vitro [4] = test: in vitro; remark: listed apart in the source
[5] = pH 7.4
in vitro [6] = details: human
[7] = liver microsomes
Furin = Furin (Homo sapiens, UniProt P09958)
apelin receptor [8] = target: T1, apelin receptor (Homo sapiens, UniProt P35414); test: Radioligand binding assay; set-up: purchased Euroscreen FAST-020B; details: competition with [125I]-(Pyr1)-apelin-13, apelin receptor membrane extracts 2 μg protein/well, 96-well plates
T1 sequence (P35414 1-380): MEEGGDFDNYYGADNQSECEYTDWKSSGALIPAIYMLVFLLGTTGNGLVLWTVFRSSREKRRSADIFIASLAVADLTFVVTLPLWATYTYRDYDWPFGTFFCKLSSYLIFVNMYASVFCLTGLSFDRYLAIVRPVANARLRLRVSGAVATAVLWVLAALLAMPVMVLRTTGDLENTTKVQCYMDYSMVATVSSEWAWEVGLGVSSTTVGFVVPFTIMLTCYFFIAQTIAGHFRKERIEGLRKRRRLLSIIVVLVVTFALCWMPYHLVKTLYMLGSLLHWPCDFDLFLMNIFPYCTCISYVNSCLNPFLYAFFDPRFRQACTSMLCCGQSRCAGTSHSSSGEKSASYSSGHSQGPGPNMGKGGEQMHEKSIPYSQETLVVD
Protocol: as §4
Dose-response curves were established and the estimated IC50 values were calculated for each compound.

apelin receptor [9] = target: T1, apelin receptor; test: Plasmon waveguide resonance (PWR) ligand binding; set-up: expressed in transfected cells; host or cells: HEK cells overexpressing apelin receptor (membrane fragments); details: HEK-apelin receptor cell membrane fragments on polylysine-treated sensor, 22 °C, n = 3
From the text: as §1

Furin, sequence (P09958 108-794, species assumed): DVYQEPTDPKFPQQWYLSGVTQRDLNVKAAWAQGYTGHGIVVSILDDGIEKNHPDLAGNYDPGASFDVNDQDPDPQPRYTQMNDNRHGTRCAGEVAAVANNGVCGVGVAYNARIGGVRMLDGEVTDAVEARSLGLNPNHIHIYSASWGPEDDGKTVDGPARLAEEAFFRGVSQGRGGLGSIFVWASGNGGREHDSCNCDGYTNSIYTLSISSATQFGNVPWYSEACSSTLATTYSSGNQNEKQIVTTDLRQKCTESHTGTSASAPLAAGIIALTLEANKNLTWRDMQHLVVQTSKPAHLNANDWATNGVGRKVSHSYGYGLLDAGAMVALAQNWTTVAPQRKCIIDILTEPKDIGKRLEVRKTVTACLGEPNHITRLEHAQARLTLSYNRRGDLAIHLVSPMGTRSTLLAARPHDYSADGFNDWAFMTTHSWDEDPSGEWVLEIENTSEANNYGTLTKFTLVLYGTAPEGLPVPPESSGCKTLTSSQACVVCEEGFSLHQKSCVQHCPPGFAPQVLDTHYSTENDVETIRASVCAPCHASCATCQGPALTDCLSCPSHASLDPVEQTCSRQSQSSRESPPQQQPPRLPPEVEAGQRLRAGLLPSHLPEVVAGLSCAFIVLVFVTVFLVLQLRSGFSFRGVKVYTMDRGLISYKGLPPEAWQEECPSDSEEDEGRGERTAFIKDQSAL

APLN: wild-type APLN stably expressed in CT-26 or MC-38 cells by lentiviral vector (QRPRLSHKGPMPF)
retina vascularization (retinal vasculature): 84.9099 and 86.8403 and 90.0489 and 88.5208 and 85.3624 and 89.8292 and 92.0113 and 89.1254 and 85.4258 and 94.4967 and 90.4185 and 89.0824 and 95.2514 and 99.1254 and 85.2991 and 91.6992 and 83.1786 and 91.7618 and 93.6101 | CAM CT-26 quantification (Fig5P file) (CT-26 cells on CAM; same data as sheet 5N): 168 and 189 and 190 | CAM CT-26 quantification (sheet 5N) (CT-26 cells on CAM; tumor or vascularized area not given): 168 and 189 and 190 | tumor volume (CT-26 and MC-38 tumors; expressing cells, Rag2/γc, day 8, control 60.45, in mm³ (unit assumed)): 180.48 | tumor volume (CT-26 and MC-38 tumors; expressing cells, Rag2/γc, day 11, control 142, in mm³ (unit assumed)): 571 | tumor volume (CT-26 and MC-38 tumors; expressing cells, Rag2/γc, day 13, control 583.25, in mm³ (unit assumed)): 974.2 | tumor volume (CT-26 and MC-38 tumors; expressing cells, Rag2/γc, day 15, control 887.52, in mm³ (unit assumed)): 1295.1 | tumor volume (CT-26 and MC-38 tumors; expressing cells, Rag2/γc, day 18, control 1263.6, in mm³ (unit assumed)): 2221 | tumor volume (CT-26 and MC-38 tumors; expressing cells, Rag2/γc, day 20, control 2040.04, in mm³ (unit assumed)): 2868 | tumor volume (CT-26 and MC-38 tumors; tumor cells stably expressing the construct, Rag2/γc mice (Fig 2C), day 7, control 38.75): 39.12 | CAM vessel density [1]: 120 and 252 and 210 and 201 and 189 and 155 and 145 and 136 | anchorage-independent growth (CT-26 and MC-38 cells): twofold increased

apelin
ERK and AKT activation (AKT and ERK): activated ERK and AKT

CSCC[C@H](NC(=O)[C@@H]1CCCN1C(=O)CNC(=O)[C@H](CCCCN)NC(=O)[C@H](Cc1c[nH]cn1)NC(=O)[C@H](CO)NC(=O)[C@H](CC(C)C)NC(=O)[C@H](CCCNC(=N)N)NC(=O)[C@@H]1CCCN1C(=O)[C@H](CCCNC(=N)N)NC(=O)[C@H](CCC(N)=O)NC(=O)[C@H](CO)NC(=O)[C@H](CO)NC(=O)[C@H](Cc1ccccc1)NC(=O)[C@H](CCCCN)NC(=O)[C@H](CO)NC(=O)[C@H](CO)NC(=O)CNC(=O)CNC(=O)[C@H](CCC(N)=O)NC(=O)[C@H](Cc1c[nH]c2ccccc12)NC(=O)[C@@H]1CCCN1C(=O)CNC(=O)[C@@H]1CCCN1C(=O)CNC(=O)[C@H](CC(N)=O)NC(=O)[C@H](CCCNC(=N)N)NC(=O)[C@H](CO)NC(=O)CNC(=O)[C@H](CCCNC(=N)N)NC(=O)[C@@H]1CCCN1C(=O)[C@H](CCC(N)=O)NC(=O)[C@@H](NC(=O)[C@@H](N)CC(C)C)C(C)C)C(=O)N1CCC[C@H]1C(=O)N[C@@H](Cc1ccccc1)C(=O)O [apelin-dm] (H-LVQPRGSRNGPGPWQGGSSKFSSQRPRLSHKGPMPF-OH)
toxicity in treated tumor-bearing mice (CT-26 tumors): no obvious toxicity in treated mice was observed | MTD at 336 h (in vivo): > 1000 mg/kg | half-life in vivo in mice [2]: 20 min | % Protein bound, Mean (in vitro [3]): 54% | fraction unbound (in vitro [3]; plasma): ~0.5 | % Protein bound, Mean (in vitro [4]): 26% | Solubility, Mean [5]: 187.3 µM (≈ 734 µg/mL) | Half-life, Mean (in vitro [6]): 1121 min | half-life (in vitro [6]; plasma): > 1080 min | Intrinsic clearance in liver microsomes [7]: < 115.5 µL/min/mg | cleavage by Furin (Furin): more stable and not cleaved | IC50 (apelin receptor [8]): 0.45 nM and 0.47 nM | Kd (apelin receptor [9]): ~0.03 nM
